Earlier results, collected in patent publication US20080064913A1 (priority 2005, published 2008).

Test system: rat
Details: in vivo

For NN [hydrazine], the “LD50 (rat)” value is given as 60 mg/kg.
